Experimental data: paper PMC5218480 (PLoS ONE, 2017)

System: MV-4-11 cells
Assay: Gene expression microarray analysis (Affymetrix PrimeView) and GSEA
Format: cell-based, human
Parameters: RFU PODN (11730768_x_at) / Fold change /veh PODN (11730768_x_at) / RFU LINC00158 (11744669_a_at) / Fold change /veh LINC00158 (11744669_a_at) / RFU DUSP10 (11751237_a_at) / Fold change /veh DUSP10 (11751237_a_at) / RFU ID3 (11757404_x_at) / Fold change /veh ID3 (11757404_x_at) / RFU PLEKHG5 (11737974_s_at) / Fold change /veh PLEKHG5 (11737974_s_at) / RFU LRRC4B (11730491_at) / Fold change /veh LRRC4B (11730491_at) / RFU GIMAP4 (11747438_a_at) / Fold change /veh GIMAP4 (11747438_a_at) / RFU KRT8 (11758183_x_at) / Fold change /veh KRT8 (11758183_x_at) / RFU CNN1 (11734310_a_at) / Fold change /veh CNN1 (11734310_a_at) / RFU VPS37D (11726825_at) / Fold change /veh VPS37D (11726825_at) / RFU C10orf10 (11716522_x_at) / Fold change /veh C10orf10 (11716522_x_at) / RFU KIR2DL2 /// KIR2DL4 /// KIR2DL5A /// KIR2DL5B /// KIR2DS1 /// KIR2DS2 /// KIR2DS3 /// KIR2DS4 /// KIR3DL3 /// KIR3DL3 /// KIR3DS1 (11738374_at) / Fold change /veh KIR2DL2 /// KIR2DL4 /// KIR2DL5A /// KIR2DL5B /// KIR2DS1 /// KIR2DS2 /// KIR2DS3 /// KIR2DS4 /// KIR3DL3 /// KIR3DL3 /// KIR3DS1 (11738374_at) / RFU C1QL1 (11718748_at) / Fold change /veh C1QL1 (11718748_at) / RFU TMPRSS4 (11747572_a_at) / Fold change /veh TMPRSS4 (11747572_a_at) / RFU HAMP (11756126_x_at) / Fold change /veh HAMP (11756126_x_at) / RFU RNFT2 (11725882_a_at) / Fold change /veh RNFT2 (11725882_a_at) / RFU NR4A2 (11747474_a_at) / Fold change /veh NR4A2 (11747474_a_at) / RFU ABCC12 (11746883_a_at) / Fold change /veh ABCC12 (11746883_a_at) / RFU TMEM136 (11760407_x_at) / Fold change /veh TMEM136 (11760407_x_at) / RFU CLDN22 /// WWC2 (11732394_at) / Fold change /veh CLDN22 /// WWC2 (11732394_at) / RFU HLA-DPB1 (11760878_x_at) / Fold change /veh HLA-DPB1 (11760878_x_at) / RFU SPINT1 (11716480_a_at) / Fold change /veh SPINT1 (11716480_a_at) / RFU GAP43 (11754022_s_at) / Fold change /veh GAP43 (11754022_s_at) / RFU A4GNT (11735810_at) / Fold change /veh A4GNT (11735810_at) / RFU PRB3 (11715151_x_at) / Fold change /veh PRB3 (11715151_x_at) / RFU TUBB4B (11761932_at) / Fold change /veh TUBB4B (11761932_at) / RFU CAPN14 (11732068_a_at) / Fold change /veh CAPN14 (11732068_a_at) / RFU TMCC2 (11721928_a_at) / Fold change /veh TMCC2 (11721928_a_at) / RFU IRGQ (11745062_a_at) / Fold change /veh IRGQ (11745062_a_at) / RFU FAM174B (11720279_a_at) / Fold change /veh FAM174B (11720279_a_at) / RFU TMPRSS4 (11748680_a_at) / Fold change /veh TMPRSS4 (11748680_a_at) / RFU FAM212B (11763350_a_at) / Fold change /veh FAM212B (11763350_a_at) / RFU PLEKHG5 (11743358_a_at) / Fold change /veh PLEKHG5 (11743358_a_at) / RFU ZSCAN30 (11745921_a_at) / Fold change /veh ZSCAN30 (11745921_a_at) / RFU CMKLR1 (11741424_a_at) / Fold change /veh CMKLR1 (11741424_a_at) / RFU LOC101060620 /// MAPK8IP1 (11723275_at) / Fold change /veh LOC101060620 /// MAPK8IP1 (11723275_at) / RFU SPTSSB (11747773_x_at) / Fold change /veh SPTSSB (11747773_x_at) / RFU PRSS12 (11739890_at) / Fold change /veh PRSS12 (11739890_at) / RFU BIN1 (11741810_x_at) / Fold change /veh BIN1 (11741810_x_at) / RFU WNT11 (11732464_a_at) / Fold change /veh WNT11 (11732464_a_at) / RFU C10orf10 (11716521_a_at) / Fold change /veh C10orf10 (11716521_a_at) / RFU C5orf56 (11738089_at) / Fold change /veh C5orf56 (11738089_at) / RFU CYB561 (11721691_x_at) / Fold change /veh CYB561 (11721691_x_at) / RFU ANKRD19P (11752326_a_at) / Fold change /veh ANKRD19P (11752326_a_at) / RFU OR2T12 /// OR2T33 /// OR2T8 (11738714_s_at) / Fold change /veh OR2T12 /// OR2T33 /// OR2T8 (11738714_s_at) / RFU VCAN (11748164_a_at) / Fold change /veh VCAN (11748164_a_at) / RFU JSRP1 (11732532_at) / Fold change /veh JSRP1 (11732532_at) / RFU KRTAP10-11 (11738290_x_at) / Fold change /veh KRTAP10-11 (11738290_x_at) / RFU MYO3A (11730013_a_at) / Fold change /veh MYO3A (11730013_a_at) / RFU EBF3 (11725865_a_at) / Fold change /veh EBF3 (11725865_a_at) / RFU CAMK2N1 (11719241_x_at) / Fold change /veh CAMK2N1 (11719241_x_at) / RFU C5orf56 (11738088_a_at) / Fold change /veh C5orf56 (11738088_a_at) / RFU OLFML3 (11715873_a_at) / Fold change /veh OLFML3 (11715873_a_at) / RFU LOC100653217 /// NTM (11731650_a_at) / Fold change /veh LOC100653217 /// NTM (11731650_a_at) / RFU MAPK11 (11762145_a_at) / Fold change /veh MAPK11 (11762145_a_at) / RFU FIZ1 (11724087_x_at) / Fold change /veh FIZ1 (11724087_x_at) / RFU OASL (11726364_x_at) / Fold change /veh OASL (11726364_x_at) / RFU SOX15 (11748057_x_at) / Fold change /veh SOX15 (11748057_x_at) / RFU CD79A (11719716_a_at) / Fold change /veh CD79A (11719716_a_at) / RFU HIST1H1D (11736915_at) / Fold change /veh HIST1H1D (11736915_at) / RFU CASKIN2 (11723855_a_at) / Fold change /veh CASKIN2 (11723855_a_at) / RFU LOC730098 (11760151_x_at) / Fold change /veh LOC730098 (11760151_x_at) / RFU OR4N2 (11742367_at) / Fold change /veh OR4N2 (11742367_at) / RFU PRRT2 (11749266_a_at) / Fold change /veh PRRT2 (11749266_a_at) / RFU SNX32 (11753110_a_at) / Fold change /veh SNX32 (11753110_a_at) / RFU CDHR5 (11726645_a_at) / Fold change /veh CDHR5 (11726645_a_at) / RFU RCAN1 (11760418_a_at) / Fold change /veh RCAN1 (11760418_a_at) / RFU FAM167A (11723789_a_at) / Fold change /veh FAM167A (11723789_a_at) / RFU FAM26E (11764081_at) / Fold change /veh FAM26E (11764081_at) / RFU ISYNA1 (11749810_s_at) / Fold change /veh ISYNA1 (11749810_s_at) / RFU ACY1 (11761880_at) / Fold change /veh ACY1 (11761880_at) / RFU 11764098_at / Fold change /veh 11764098_at / RFU SAMD14 (11745864_x_at) / Fold change /veh SAMD14 (11745864_x_at) / RFU NPB (11741838_a_at) / Fold change /veh NPB (11741838_a_at) / RFU TMPRSS6 (11731388_a_at) / Fold change /veh TMPRSS6 (11731388_a_at) / RFU KRTAP10-2 (11738614_at) / Fold change /veh KRTAP10-2 (11738614_at) / RFU ARHGAP8 /// PRR5-ARHGAP8 (11727945_x_at) / Fold change /veh ARHGAP8 /// PRR5-ARHGAP8 (11727945_x_at) / RFU KRTAP5-7 /// NADSYN1 (11734609_at) / Fold change /veh KRTAP5-7 /// NADSYN1 (11734609_at) / RFU RASL12 (11751679_a_at) / Fold change /veh RASL12 (11751679_a_at) / RFU CDKN2B (11736163_a_at) / Fold change /veh CDKN2B (11736163_a_at) / RFU PRF1 (11729649_at) / Fold change /veh PRF1 (11729649_at) / RFU, ZNF638 /// ZNF638-IT1 / Fold change vs veh, ZNF638 /// ZNF638-IT1 / RFU, PANK3 / Fold change vs veh, PANK3 / RFU, SH3YL1 / Fold change vs veh, SH3YL1 / RFU, ZEB2 / Fold change vs veh, ZEB2 / RFU, NRIP1 / Fold change vs veh, NRIP1 / RFU, PTTG1IP / Fold change vs veh, PTTG1IP / RFU, CAPN2 / Fold change vs veh, CAPN2 / RFU, MED14 / Fold change vs veh, MED14 / RFU, SNORA58 / Fold change vs veh, SNORA58 / RFU, C1orf63 / Fold change vs veh, C1orf63 / RFU, LRRFIP1 / Fold change vs veh, LRRFIP1 / RFU, NDUFAF7 / Fold change vs veh, NDUFAF7 / RFU, SLC12A2 / Fold change vs veh, SLC12A2 / RFU, IBTK / Fold change vs veh, IBTK / RFU, ESF1 / Fold change vs veh, ESF1 / Fold change vs veh, TMEM50B / RFU, TAOK1 / Fold change vs veh, TAOK1 / RFU, ACBD3 / Fold change vs veh, ACBD3 / RFU, TMA16 / Fold change vs veh, TMA16 / RFU, RWDD3 / Fold change vs veh, RWDD3 / RFU, BCAT1 / Fold change vs veh, BCAT1 / RFU, EDEM3 / Fold change vs veh, EDEM3 / RFU, TMEM33 / Fold change vs veh, TMEM33 / RFU, WDR75 / Fold change vs veh, WDR75 / RFU, AHCTF1 / Fold change vs veh, AHCTF1 / RFU, TFRC / Fold change vs veh, TFRC / RFU, ZDHHC17 / Fold change vs veh, ZDHHC17 / RFU, NOM1 / Fold change vs veh, NOM1 / RFU, ARL8B / Fold change vs veh, ARL8B / RFU, ZBTB11 / Fold change vs veh, ZBTB11 / RFU, TAMM41 / Fold change vs veh, TAMM41 / RFU, KIAA1704 /// LOC100996395 / Fold change vs veh, KIAA1704 /// LOC100996395 / RFU, ING1 / Fold change vs veh, ING1 / RFU, TRMT61B / Fold change vs veh, TRMT61B / RFU, FUBP3 / Fold change vs veh, FUBP3 / RFU, TP53 / Fold change vs veh, TP53 / RFU, TNKS2 / Fold change vs veh, TNKS2 / RFU, ZFP14 / Fold change vs veh, ZFP14 / RFU, ACTR2 / Fold change vs veh, ACTR2 / RFU, PPP3R1 / Fold change vs veh, PPP3R1 / RFU, PIK3R1 / Fold change vs veh, PIK3R1 / RFU, HNRNPA1 / Fold change vs veh, HNRNPA1 / RFU, RNF170 / Fold change vs veh, RNF170 / RFU, ZNF28 / Fold change vs veh, ZNF28 / RFU, RNGTT / Fold change vs veh, RNGTT / RFU, OGT / Fold change vs veh, OGT / RFU, BRD1 / Fold change vs veh, BRD1 / RFU, MARS / Fold change vs veh, MARS / RFU, ZNF655 / Fold change vs veh, ZNF655 / RFU, FAHD1 / Fold change vs veh, FAHD1 / RFU, BDP1 / Fold change vs veh, BDP1 / RFU, LRRCC1 / Fold change vs veh, LRRCC1 / RFU, ARID1A / Fold change vs veh, ARID1A / RFU, ZNF146 / Fold change vs veh, ZNF146 / RFU, ZNF330 / Fold change vs veh, ZNF330 / RFU, GPN3 / Fold change vs veh, GPN3 / RFU, C9orf123 / Fold change vs veh, C9orf123 / RFU, N4BP2L2 / Fold change vs veh, N4BP2L2 / RFU, ARFIP1 / Fold change vs veh, ARFIP1 / RFU, FAM179B / Fold change vs veh, FAM179B / RFU, BCL10 / Fold change vs veh, BCL10 / RFU, UHRF1BP1L / Fold change vs veh, UHRF1BP1L / RFU, BET1 / Fold change vs veh, BET1 / RFU, CNOT2 / Fold change vs veh, CNOT2 / RFU, ZNF268 / Fold change vs veh, ZNF268 / Fold change vs veh, ZNF507 / RFU, DGCR2 / Fold change vs veh, DGCR2 / RFU, WDSUB1 / Fold change vs veh, WDSUB1 / Fold change vs veh, HSP90B1 /// MIR3652 / RFU, ADSS / Fold change vs veh, ADSS / RFU, GK / Fold change vs veh, GK / RFU, ZNF148 / Fold change vs veh, ZNF148 / RFU, TAF9 / Fold change vs veh, TAF9 / RFU, SLC1A5 / Fold change vs veh, SLC1A5 / RFU, SLMO2 / Fold change vs veh, SLMO2 / RFU, ABCC4 / Fold change vs veh, ABCC4 / RFU, LOC101060439 /// RAP1B / Fold change vs veh, LOC101060439 /// RAP1B / RFU, RFX7 / Fold change vs veh, RFX7 / RFU, GTPBP10 / Fold change vs veh, GTPBP10 / RFU, CNEP1R1 / Fold change vs veh, CNEP1R1 / RFU, BIVM-ERCC5 /// ERCC5 / Fold change vs veh, BIVM-ERCC5 /// ERCC5 / RFU, ILF3 / Fold change vs veh, ILF3 / RFU 11762660_at / Fold change /veh 11762660_at / RFU VCAN (11757783_s_at) / Fold change /veh VCAN (11757783_s_at) / RFU DDX43 (11728927_at) / Fold change /veh DDX43 (11728927_at) / RFU KRT8 (11758188_x_at) / Fold change /veh KRT8 (11758188_x_at) / RFU NKD1 (11759106_at) / Fold change /veh NKD1 (11759106_at) / RFU SRD5A1 (11742802_a_at) / Fold change /veh SRD5A1 (11742802_a_at) / RFU TPSAB1 /// TPSB2 (11721975_s_at) / Fold change /veh TPSAB1 /// TPSB2 (11721975_s_at) / RFU GSTM3 (11746129_a_at) / Fold change /veh GSTM3 (11746129_a_at) / RFU IL23R (11737362_x_at) / Fold change /veh IL23R (11737362_x_at) / RFU TMEM51 (11727254_a_at) / Fold change /veh TMEM51 (11727254_a_at) / RFU PIWIL2 (11732686_x_at) / Fold change /veh PIWIL2 (11732686_x_at) / RFU ORM1 (11744905_x_at) / Fold change /veh ORM1 (11744905_x_at) / RFU CCDC152 (11743942_at) / Fold change /veh CCDC152 (11743942_at) / RFU ECM1 (11717891_a_at) / Fold change /veh ECM1 (11717891_a_at) / RFU IL23R (11748794_a_at) / Fold change /veh IL23R (11748794_a_at) / RFU TNFAIP8L3 (11732012_x_at) / Fold change /veh TNFAIP8L3 (11732012_x_at) / RFU MBOAT4 (11741988_at) / Fold change /veh MBOAT4 (11741988_at) / RFU 11764193_at / Fold change /veh 11764193_at / RFU TMEM53 (11763286_at) / Fold change /veh TMEM53 (11763286_at) / RFU MAGEB2 (11727129_at) / Fold change /veh MAGEB2 (11727129_at) / RFU TMEM200A (11744735_a_at) / Fold change /veh TMEM200A (11744735_a_at) / RFU CCDC152 (11751479_a_at) / Fold change /veh CCDC152 (11751479_a_at) / RFU FAM211A (11726209_a_at) / Fold change /veh FAM211A (11726209_a_at) / RFU RGS16 (11746705_a_at) / Fold change /veh RGS16 (11746705_a_at) / RFU VCAN (11755009_s_at) / Fold change /veh VCAN (11755009_s_at) / RFU RHOB (11743442_s_at) / Fold change /veh RHOB (11743442_s_at) / RFU RGS16 (11720943_a_at) / Fold change /veh RGS16 (11720943_a_at) / RFU RGS16 (11720944_at) / Fold change /veh RGS16 (11720944_at) / RFU, VPS4B / Fold change vs veh, VPS4B / RFU, CREB1 / Fold change vs veh, CREB1 / RFU, DNAJC13 / Fold change vs veh, DNAJC13 / RFU, GNAQ / Fold change vs veh, GNAQ / RFU, CDK5R1 / Fold change vs veh, CDK5R1 / RFU, ZRANB3 / Fold change vs veh, ZRANB3 / RFU, CUL4A / Fold change vs veh, CUL4A / RFU, CCNY / Fold change vs veh, CCNY / RFU, UFL1 / Fold change vs veh, UFL1 / RFU, COG3 / Fold change vs veh, COG3 / RFU, DIAPH2 / Fold change vs veh, DIAPH2 / RFU, SKA2 / Fold change vs veh, SKA2 / RFU, AFF3 / Fold change vs veh, AFF3 / RFU, LMF1 / Fold change vs veh, LMF1 / RFU, IPO11 / Fold change vs veh, IPO11 / RFU, DFFB / Fold change vs veh, DFFB / RFU, FOXP1 / Fold change vs veh, FOXP1 / RFU, CARD8 / Fold change vs veh, CARD8 / RFU, STRN3 / Fold change vs veh, STRN3 / RFU, ADK / Fold change vs veh, ADK / RFU, RASSF2 / Fold change vs veh, RASSF2 / RFU, WIPF1 / Fold change vs veh, WIPF1 / RFU, LARP1B / Fold change vs veh, LARP1B / RFU, RASA1 / Fold change vs veh, RASA1 / RFU, RB1 / Fold change vs veh, RB1 / RFU, PPFIA1 / Fold change vs veh, PPFIA1 / RFU, MAT2A / Fold change vs veh, MAT2A / RFU, CCT5 / Fold change vs veh, CCT5 / RFU, WDR92 / Fold change vs veh, WDR92 / RFU, CUX1 / Fold change vs veh, CUX1 / RFU, TTC7A / Fold change vs veh, TTC7A / RFU, TMEM135 / Fold change vs veh, TMEM135 / RFU, DEPTOR / Fold change vs veh, DEPTOR / RFU, CPM / Fold change vs veh, CPM / RFU, DNAJB6 / Fold change vs veh, DNAJB6 / RFU, CACNA2D3 / Fold change vs veh, CACNA2D3 / RFU, DTX4 / Fold change vs veh, DTX4 / RFU, TFCP2 / Fold change vs veh, TFCP2 / RFU, GMCL1 /// GMCL1P1 / Fold change vs veh, GMCL1 /// GMCL1P1 / RFU, AEBP2 / Fold change vs veh, AEBP2 / RFU, SNHG1 /// SNORD22 /// SNORD25 /// SNORD26 /// SNORD27 /// SNORD28 /// SNORD29 /// SNORD31 / Fold change vs veh, SNHG1 /// SNORD22 /// SNORD25 /// SNORD26 /// SNORD27 /// SNORD28 /// SNORD29 /// SNORD31 / Fold change (Aza/veh), C12orf56 (ProbeSet 11735607_a_at) / Fold change (ACY-1035/veh), C12orf56 (ProbeSet 11735607_a_at) / Fold change (Aza/veh), FGFR1OP (ProbeSet 11751329_s_at) / Fold change (ACY-1035/veh), FGFR1OP (ProbeSet 11751329_s_at) / Fold change (Aza/veh), VPS36 (ProbeSet 11739960_a_at) / Fold change (ACY-1035/veh), VPS36 (ProbeSet 11739960_a_at) / RFU SYPL1 (11715823_x_at) / Fold change /veh SYPL1 (11715823_x_at) / RFU IGFBP7 (11715501_s_at) / Fold change /veh IGFBP7 (11715501_s_at) / RFU REEP3 (11722064_at) / Fold change /veh REEP3 (11722064_at) / RFU IGLL1 (11728026_x_at) / Fold change /veh IGLL1 (11728026_x_at): dose or concentration left out as unconfirmed
Conditions: MV-4-11 cells, 48 hours

Question: How did the “RFU PODN (11730768_x_at)” value turn out when `Nc1ncn([C@@H]2O[C@H](CO)[C@@H](O)[C@H]2O)c(=O)n1` [azacitidine] was run?
Answer: The value was 27.35 RFU.
